Test results: PubChem BioAssay (NCI)
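Compound exposure: 48 hours, 5 concentrations, 96-well plates. GI50 = concentration required for 50% inhibition of growth. TGI marks complete inhibition of growth.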

Legend:
Experiment in all cases: NCI-60 cell line screen, 48 h
[1] = tested on: DLD-1 colon
[2] = tested on: XF 498 CNS
[3] = tested on: HOP-18 NSCLC
[4] = tested on: KM20L2 colon
[5] = tested on: DMS 114 small cell lung
[6] = tested on: RXF-631 renal
[7] = tested on: LXFL 529 NSCLC
[8] = tested on: M19-MEL melanoma
[9] = tested on: MDA-N

`O=C1c2ccccc2C(=O)c2sc(Nc3ccc(Cl)c(Cl)c3)nc21` was tested, and the TGI [1] was 4.66 µM, the TGI [2] was 6.04 µM and the TGI [3] was 14.3 µM. It also gave a TGI [4] of 41.7 µM, a TGI [5] of 3.26 µM and a TGI [6] of 31.4 µM. For the same compound, the TGI [7] was 3.53 µM and the TGI [8] was 2.44 µM.
`CCOC(=O)C1(Cc2ccc3ccccc3c2)CCCCCN1` (stereo unspecified) was tested, and the TGI [1] was 56.9 µM, the TGI [2] was 41.2 µM and the TGI [3] was over 100 µM. The TGI [4] was 57 µM, the TGI [5] was 87.4 µM and the TGI [7] was over 100 µM. For the same compound, the TGI [8] was 93.8 µM.
With `O=c1[nH]c2c(O)cccc2c2cc3c(c(O)c12)OCO3` the TGI [1] was 62.4 µM, the TGI [2] was 56 µM and the TGI [3] was 0.877 µM. For the same compound, the TGI [4] was 40.4 µM, the TGI [5] was 75.8 µM and the TGI [7] was 73.1 µM. It also gave a TGI [8] of 93.5 µM.
With `COc1cc2c3c(c1O)C1(C=CC(=O)C=C1)CC3N(C)CC2` (stereo unspecified) the TGI [9] was 24.2 µM.
With `O=[N+]([O-])c1cc(/C=N/NS(=O)(=O)c2ccc(F)cc2)c(O)c([N+](=O)[O-])c1` the TGI [1] was over 100 µM, the TGI [3] was over 100 µM and the TGI [4] was 59.3 µM. The TGI [5] was over 100 µM and the TGI [8] was over 100 µM.
For `O=C1c2cccc3cc([N+](=O)[O-])cc(c23)C(=O)N1O`, the TGI [9] was over 100 µM.
`CCOC(=O)CNC(=O)C(CSC(=O)N(C)O)NC(=O)CCC(N)C(=O)O` (stereo unspecified) was tested, and the GI50 [1] was over 2000 µM, the GI50 [3] was over 2000 µM and the TGI [3] was over 2000 µM. It also gave a GI50 [4] of over 2000 µM, a TGI [4] of over 2000 µM and a GI50 [5] of over 2000 µM. The GI50 [7] was over 2000 µM, the TGI [7] was over 2000 µM and the GI50 [8] was over 2000 µM. It also gave a TGI [8] of over 2000 µM.
Work on `NC(=O)CCC(NC(=O)C(F)(F)F)C(=O)O` (stereo unspecified) yielded a TGI [1] of over 100 µM, a TGI [2] of over 100 µM and a TGI [3] of over 100 µM. It also gave a TGI [4] of over 100 µM, a TGI [5] of over 100 µM and a TGI [7] of over 100 µM. The TGI [8] was over 100 µM.
Compound `NC(=O)NC(=O)C1CCCCC1C(=O)O` (stereo unspecified) has a TGI [9] of over 100 µM.
`c1cnc2c(c1)Nc1cnncc1S2` gave a TGI [9] of over 100 µM.
For `Nc1cccc2nsnc12`, the TGI [9] was over 100 µM.
Compound `CC(C)[O-].CC(C)[O-].[O-]c1cccc2cccnc12.[O-]c1cccc2cccnc12.[Ti+4]` has a GI50 [1] of 4.97 µM, a TGI [3] of over 100 µM and a TGI [4] of over 100 µM.
With `OC(c1ccccc1)c1c(-c2ccccc2)oc(-c2ccccc2)c1C(O)c1ccccc1` (stereo unspecified) the TGI [9] was 24.6 µM.
Work on `C=C=[CH][Sn]([c]1ccccc1)([c]1ccccc1)[c]1ccccc1` yielded a GI50 [1] of 1.48 µM, a TGI [1] of 4.15 µM and a GI50 [4] of 2.02 µM. For the same compound, the TGI [4] was 4 µM, the GI50 [5] was 1.52 µM and the TGI [5] was 2.94 µM. The GI50 [7] was 1.58 µM, the TGI [7] was 3.02 µM and the GI50 [8] was 1.62 µM. It also gave a TGI [8] of 3.06 µM.
For `C[N+]1=c2c3cccc4cccc(c(=O)n2CCC1)c43`, the TGI [1] was 46.9 µM, the TGI [2] was 38 µM and the TGI [3] was over 100 µM. It also gave a TGI [4] of 47.2 µM, a TGI [5] of 38.7 µM and a TGI [7] of 40.7 µM. It also gave a TGI [8] of 35.8 µM.
For `O=P1(O)c2ccccc2CS(=O)(=O)Cc2ccccc21`, the TGI [9] was over 100 µM.
`COC(=O)C1=Cc2c(OC)cc(OC)c(OC)c2[C@H](c2cc(OC)c(OC)cc2OC)C1C(=O)OC` (stereo partly specified) gave a TGI [1] of over 100 µM, a TGI [2] of over 100 µM and a TGI [4] of over 100 µM. For the same compound, the TGI [5] was over 100 µM, the TGI [6] was over 100 µM and the TGI [7] was over 100 µM. For the same compound, the TGI [8] was over 100 µM.
For `CC12C(=O)N(CCN)C(=O)C1C1c3ccccc3C2c2ccccc21` (stereo unspecified), the TGI [1] was over 100 µM, the TGI [2] was over 100 µM and the TGI [3] was over 100 µM. The TGI [4] was over 100 µM, the TGI [5] was over 100 µM and the TGI [7] was over 100 µM. For the same compound, the TGI [8] was over 100 µM.
With `O=C1CCC(=O)C(C(=O)CCC(=O)Nc2cccc(Cl)c2)C1` (stereo unspecified) the TGI [1] was over 100 µM, the TGI [2] was over 100 µM and the TGI [3] was over 100 µM. For the same compound, the TGI [4] was over 100 µM, the TGI [7] was over 100 µM and the TGI [8] was over 100 µM.
For `CC12OC3CC(O1)C1(C=O)C4CCC5(C)C(c6ccc(=O)oc6)CCC5(O)C4CCC1(C3)O2` (stereo unspecified), the TGI [1] was 0.483 µM, the TGI [3] was 0.748 µM and the TGI [4] was 1.31 µM. For the same compound, the TGI [5] was 0.191 µM, the TGI [7] was 0.432 µM and the TGI [8] was 1.16 µM.
In the case of `CC(C)NC(=O)O/N=C1\CCC2[C@@H]3CC=C4C[C@@H](OC(=O)NC(C)C)CC[C@]4(C)C3CC[C@]12C` (stereo partly specified), the TGI [1] is reported as over 25.3 µM, the TGI [3] is reported as 4.67 µM and the TGI [4] is reported as 9.59 µM. The TGI [5] was 1.98 µM, the TGI [6] was 3.57 µM and the TGI [7] was 2.13 µM. The TGI [8] was 2.81 µM.
In the case of `CC1=NN(c2ccccc2)C(=O)C1N=Nc1ccc(Br)c(C)c1` (stereo unspecified), the TGI [1] is reported as over 100 µM, the TGI [2] is reported as over 100 µM and the TGI [3] is reported as over 100 µM. The TGI [4] was over 100 µM, the TGI [5] was over 100 µM and the TGI [6] was over 100 µM. The TGI [7] was over 100 µM and the TGI [8] was over 100 µM.
Work on `CCc1oc2ccc(OC)c3c2c1C=CC=C3` yielded a TGI [1] of over 100 µM, a TGI [7] of over 100 µM and a TGI [8] of over 100 µM.
For `OC1C2C=CCC1CCC2` (stereo unspecified), the TGI [1] was over 100 µM, the TGI [2] was over 100 µM and the TGI [3] was over 100 µM. For the same compound, the TGI [4] was over 100 µM, the TGI [5] was over 100 µM and the TGI [6] was over 100 µM. The TGI [8] was over 100 µM.
`CCC[CH2][Sn]1([CH2]CCC)[O]C(=O)c2cc(C)ccc2[O]1` showed a GI50 [1] of 0.537 µM, a TGI [1] of 1.83 µM and a GI50 [4] of 1.35 µM. For the same compound, the TGI [4] was 2.64 µM, the TGI [5] was 0.771 µM and the GI50 [7] was 0.129 µM. The TGI [7] was 0.336 µM.
Compound `CC[O-].CC[O-].O=C([CH-]C(=O)c1ccccc1)c1ccccc1.O=C([CH-]C(=O)c1ccccc1)c1ccccc1.[Ti+4]` has a GI50 [4] of over 100 µM and a TGI [4] of over 100 µM.
`CS(=O)(=O)c1nc(Cl)c(Cl)c(C#N)c1Cl` showed a TGI [1] of 3.13 µM, a TGI [2] of 7.93 µM and a TGI [3] of 11.5 µM. For the same compound, the TGI [4] was 20.8 µM, the TGI [5] was 32.2 µM and the TGI [6] was 38.9 µM. It also gave a TGI [9] of 3.5 µM and a TGI [7] of 2.99 µM.
`Cc1cc2c(cc1C)[n+]([O-])c(-c1c(Cl)cccc1Cl)c(N)[n+]2[O-]` showed a TGI [1] of over 100 µM, a TGI [3] of 86.4 µM and a TGI [4] of over 100 µM. For the same compound, the TGI [5] was 98.7 µM, the TGI [6] was 35.7 µM and the TGI [7] was over 100 µM. The TGI [8] was over 100 µM.
`Cc1cc(C)c2[s+]snc2c1` showed a TGI [1] of over 100 µM, a TGI [2] of over 100 µM and a TGI [3] of over 100 µM. It also gave a TGI [4] of over 100 µM, a TGI [6] of over 100 µM and a TGI [7] of over 100 µM. It also gave a TGI [8] of over 100 µM.
Compound `C[C@]12CCCC(=O)C1C[C@H](C(=O)O)CC2` (stereo partly specified) has a TGI [1] of over 100 µM, a TGI [2] of over 100 µM and a TGI [3] of over 100 µM. The TGI [4] was over 100 µM, the TGI [5] was over 100 µM and the TGI [6] was over 100 µM. It also gave a TGI [7] of over 100 µM and a TGI [8] of over 100 µM.
